Experimental data as given in US20220079962A1, “NUTRITIONAL COMPOSITION COMPRISING 2'FUCOSYLLACTOSE AND DIETARY BUTYRATE” (N.V. Nutricia, priority 2019, published 2022).

Key:
Caco-2 cell monolayer = test: DON-induced impairment of Caco-2 cell monolayer integrity (TEER, lucifer yellow flux); format: cell-based, human; conditions: 24 h pretreatment with 0.75 wt. % GL, then DON 4.2 μM 24 h; FIGS. 1A-D
Description: Caco-2 cells were used according to established methods. In brief: cells were cultured in Dulbecco's modified Eagle medium (DMEM) and seeded at a density of 0.3×10^5 cells into 0.3 cm^2 high pore density (0.4 μm) inserts with a polyethylene terephthalate membrane (BD Biosciences, Franklin Lakes, N.J., USA) placed in a 24-well plate. The Caco-2 cells were maintained in a humidified atmosphere of 95 air and 5% CO2 at 37° C.
Caco-2 cell monolayers were thus grown in a transwell system, which is a model for intestinal barrier function. The monolayers were pretreated for 24 h with different GLs, including beta3′-GL, alpha3′-GL, beta4′-GL and beta6′-GL in a concentration of 0.75 wt. % of the GL, before being exposed to the fungal toxin deoxynivalenol (DON), which is a trigger and model compound to impair intestinal barrier. DON was diluted to a final concentration of 4.2 μM in complete cell medium and added to the apical side as well as to the basolateral side of the transwell inserts. […] Incubation with DON was 24 h.
Measurements of the transepithelial electrical resistance (TEER) and lucifer yellow (LY) permeability were conducted to investigate barrier integrity. For TEER measurements a Millicel-ERS voltohmmeter connected to a pair of chopsticks electrodes was used to measure the TEER values. Results are expressed as a percentage of the initial value. For paracellular tracer flux assay the membrane impermeable lucifer yellow (LY) (Sigma, St Louis, Mo., USA) was added in a concentration of 16 μg/ml to the apical compartment in the transwell plate for 4 h, and the paracellular flux was determined by measuring the fluorescence intensity in the basolateral compartment with a spectrophotofluorimeter (FLUOstar Optima, BMG Labtech, Offenburg, Germany) set at excitation and emission wavelengths of 410 and 520 nm, respectively. Release of interleukin-8 (IL-8 or CXCL8), which is a typical marker for inflammation, was quantified in the medium of the apical side and the basolateral side of the Caco-2 transwell inserts in response to the treatments. CXCL8 concentrations were measured by using the human IL-8 ELISA assay (BD Biosciences, Pharmingem, San Diego, Calif., USA) according to manufacturer's instructions. For more details on materials and methods see Akbari et al, 2016, Eur J Nutr. 56(5):1919-1930.

[1] = test system: T84 human intestinal epithelial cells; test: T84 monolayer barrier integrity (TEER) with IL-4; format: cell-based
Description: T84 human intestinal epithelial cells are commonly used to study intestinal barrier integrity in vitro. T84 cells (ATCC, USA) were cultured on 12 mm transwell inserts (0.4 μm, Corning Costrar, USA) in DMEM-F12 glutamax with penicillin-streptomycin (100 IU/ml), supplemented with 5% FBS-Hl. T84 cells were used 14 days after reaching confluence. Monolayers of T84 cultured on transwell filters were pre-incubated for 48 h with or without butyrate. These samples were subsequently incubated for an additional 48 h in the presence of IL-4 (25 ng/ml). IL-4 was added to the basolateral compartment; medium and additives were changed every 24 h.
Epithelial barrier integrity was assessed by measuring transepithelial resistance (TEER; Ω×cm^2) with the epithelial volt-ohm meter (EVOM; World Precision Instruments, Germany).

[2] = test system: human peripheral blood mononuclear cells (PBMC); test: PBMC cytokine levels, unstimulated condition; format: cell-based
Source text: Isolation of PBMC from healthy donors: Human peripheral blood mononuclear cells (PBMC) from healthy donors were isolated from buffy coats (Sanquin, Amsterdam, the Netherlands). PBMC were obtained by centrifugation using Leucosep tubes (Greiner Bio-One). […] After lysis, the PBMC were resuspended in freezing medium (70% RPMI 1640 medium (Gibco, Thermo Fisher Technologies) supplemented with 10% heat-inactivated FCS and 100 U/ml penicillin-streptomycin, 20% heat-inactivated FCS and 10% DMSO (Sigma)) and cryopreserved. PBMC activation model: PBMC (0.2.10^6 cell/well) were cultured in 96-well flat bottom plates (Corning). For 24 hours the cells were pre-incubated with 2'-FL (Jennewein), 3'-GL (0-0.3% w/v; […] Sigma Aldrich) and combinations thereof. Subsequently, the cells were CD3/CD28-activated (Pelicluster CD3 and Pelicluster CD28, Sanquin) for an additional 24 hours. After incubation, IFNγ was measured by ELISA in the supernatants (see below). […] Roche) and/or 10% Triton (5 μl; negative control). […] Cytokine production of PBMC: PBMC were incubated with indicated reagents. After incubation, the supernatants were collected and IL2, IL6, IL10, IL13, IL21, TNFα, IFNγ, MIF, CCL1, CCL13, CCL17, CCL20, CCL22 and CXCL8-11 levels were measured by conducting a validated multiplex immunoassay based on Luminex technology (xMAP, Luminex Austin Tex. USA). Acquisition was conducted with the Biorad […] (Biorad laboratories, Hercules USA) in combination with xPONENT software version 4.2 (Luminex). Data was analyzed by 5-parametric curve fitting using Bio-Plex Manager software, version 6.1.1 (Biorad). After PBMC stimulation, cell culture supernatants were collected, after which cytokine responses were measured in order to test immune responsiveness of the cells. The levels of cytokines measured in stimulated conditions were corrected for the (low) levels of the cytokines measured in non-stimulated conditions. In addition, since each donor is reacting in its own efficiency onto the T cell stimulus, we calculated the individual index of cytokine response by dividing the intervention induced response by the basal stimulated response.

[3] = test system: human peripheral blood mononuclear cells (PBMC); test: PBMC cell activity (WST-1); format: cell-based; conditions: after 24 h
Description: PBMC activation model: PBMC (0.2.10^6 cell/well) were cultured in 96-well flat bottom plates (Corning). For 24 hours the cells were pre-incubated with 2′-FL (Jennewein), 3′-GL (0-0.3% w/v; […] Sigma Aldrich) and combinations thereof. Subsequently, the cells were CD3/CD28-activated (Pelicluster CD3 and Pelicluster CD28, Sanquin) for an additional 24 hours. After incubation, IFNγ was measured by ELISA in the supernatants (see below). […] Roche) and/or 10% Triton (5 μl; negative control).

Structure (SMILES) | effect on DON-induced loss of epithelial barrier integrity (TEER, LY flux) (Caco-2 cell monolayer) | IL-4 induced disruption of intestinal barrier function [1] | IL10 level compared to blanc control ([2]; 0.2% 2′-FL, 0.2 mM butyrate) | CCL20 level compared to blanc control ([2]; unstimulated) | Immune cell activity as measured by WST [3]
OC[C@H]1O[C@H](O[C@H]2[C@@H](O)[C@@H](CO)O[C@@H](O[C@H]3[C@H](O)[C@@H](O)C(O)O[C@@H]3CO)[C@@H]2O)[C@H](O)[C@@H](O)[C@H]1O (stereo partly drawn) [alpha3′-GL, Gal (alpha 1-3)-Gal (beta 1-4)-Glc, reference compound] | did not prevent the DON-induced disrupted intestinal barrier | – | – | – | –
OC[C@H]1O[C@@H](O[C@@H]2[C@H](O)[C@@H](O)[C@H](O[C@H]3[C@H](O)[C@@H](O)C(O)O[C@@H]3CO)O[C@@H]2CO)[C@H](O)[C@@H](O)[C@H]1O (stereo partly drawn) [beta4′-GL, Gal (beta 1-4)-Gal (beta 1-4)-Glc, reference compound] | did not show a significant effect | – | – | – | –
OC[C@H]1O[C@@H](OC[C@H]2O[C@@H](O[C@H]3[C@H](O)[C@@H](O)C(O)O[C@@H]3CO)[C@H](O)[C@@H](O)[C@H]2O)[C@H](O)[C@@H](O)[C@H]1O (stereo partly drawn) [beta6′-GL, Gal (beta 1-6)-Gal (beta 1-4)-Glc, reference compound] | did not show a significant effect | – | – | – | –
CCCC(=O)O [butyrate, butyric acid] | – | ameliorated | did not have an effect on IL10 levels | did not have a statistically significant effect | did not influence immune cell metabolic activity
